Laboratory results taken from ChEMBL document CHEMBL1201862, “PubChem BioAssay data set” (2004).
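1) Cells in 96-well plates. 2) Compound, 48 h, 5 concentrations. 3) Linear interpolation between surrounding doses. 4) Unreached endpoint = highest concentration. GI50 marks 50% less growth.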 Activity calls are given as the source filed them. No stated cut-off is given here; in the data, active = GI50 up to about 1.1 µM and inactive = higher.

Experiments:
Test in all cases: growth of human tumour cells (NCI), 48 h
786-0 = tested on: 786-0
CAKI-1 = tested on: CAKI-1
COLO 205 = tested on: COLO 205
HCT-116 = tested on: HCT-116
HCT-15 = tested on: HCT-15
K562 = tested on: K562
LOX IMVI = tested on: LOX IMVI
MDA-MB-435 = tested on: MDA-MB-435
Malme-3M = tested on: Malme-3M
NCI/ADR-RES = tested on: NCI/ADR-RES
OVCAR-5 = tested on: OVCAR-5
RPMI-8226 = tested on: RPMI-8226
SF-539 = tested on: SF-539
SK-MEL-5 = tested on: SK-MEL-5
SN12C = tested on: SN12C
SW-620 = tested on: SW-620
UACC-257 = tested on: UACC-257
SNB-75 = tested on: SNB-75
RXF 393 = tested on: RXF 393

SMILES	GI50 (786-0)	GI50 (CAKI-1)	GI50 (COLO 205)	GI50 (HCT-116)	GI50 (HCT-15) [µM]	GI50 (K562)	GI50 (LOX IMVI)	GI50 (MDA-MB-435)	GI50 (Malme-3M)	GI50 (NCI/ADR-RES)	GI50 (OVCAR-5)	GI50 (RPMI-8226)	GI50 (SF-539)	GI50 (SK-MEL-5)	GI50 (SN12C)	GI50 (SW-620)	GI50 (UACC-257)	GI50 (SNB-75)	GI50 (RXF 393)
Cc1cc(=O)oc2c(OS(C)(=O)=O)c(OS(C)(=O)=O)ccc12	> 100 µM (inactive)	> 100 µM (inactive)	> 100 µM (inactive)	> 100 µM (inactive)	> 100	> 100 µM (inactive)	> 100 µM (inactive)	> 100 µM (inactive)	> 100 µM (inactive)	> 100 µM (inactive)	> 100 µM (inactive)	> 100 µM (inactive)	> 100 µM (inactive)	> 100 µM (inactive)	> 100 µM (inactive)	> 100 µM (inactive)	> 100 µM (inactive)	–	–
C=C1CCC2CC1C(C(=O)c1c[nH]c3ccccc13)=NC2(C)C (configuration not stated)	> 100 µM (inactive)	> 100 µM (inactive)	> 100 µM (inactive)	> 100 µM (inactive)	> 100	92.7 µM (inactive)	> 100 µM (inactive)	> 100 µM (inactive)	> 100 µM (inactive)	> 100 µM (inactive)	> 100 µM (inactive)	91 µM (inactive)	> 100 µM (inactive)	> 100 µM (inactive)	> 100 µM (inactive)	> 100 µM (inactive)	> 100 µM (inactive)	> 100 µM (inactive)	–
Oc1ccc(Cc2cc(Cc3ccc(O)cc3)cc(Cc3ccc(O)cc3)c2)cc1	> 50 µM (inactive)	–	–	> 50 µM (inactive)	> 50	> 50 µM (inactive)	> 50 µM (inactive)	> 50 µM (inactive)	> 50 µM (inactive)	> 50 µM (inactive)	> 50 µM (inactive)	> 50 µM (inactive)	> 50 µM (inactive)	–	> 50 µM (inactive)	> 50 µM (inactive)	> 50 µM (inactive)	> 50 µM (inactive)	–
Cn1c(=O)oc2nc(-c3ccccc3)cc(C(F)(F)F)c21	> 100 µM (inactive)	> 100 µM (inactive)	> 100 µM (inactive)	9.33 µM (inactive)	> 100	–	–	15.9 µM (inactive)	–	58.3 µM (inactive)	> 100 µM (inactive)	30.5 µM (inactive)	5.3 µM (inactive)	50.7 µM (inactive)	5.71 µM (inactive)	> 100 µM (inactive)	> 100 µM (inactive)	> 100 µM (inactive)	–
Cn1c(=O)nc2n(-c3ccc(Cl)cc3)c3ccc(Cl)cc3nc-2c1=O	12.2 µM (inactive)	4.45 µM (inactive)	–	8.55 µM (inactive)	8.02	5.02 µM (inactive)	3.14 µM (inactive)	–	–	–	16.1 µM (inactive)	–	–	1.04 µM (active)	13.1 µM (inactive)	4.44 µM (inactive)	3.4 µM (inactive)	1.46 µM (inactive)	2.04 µM (inactive)
CN(C)CCCOCCn1c2c(c3ccccc31)CCCC2	15.2 µM (inactive)	15.2 µM (inactive)	16.6 µM (inactive)	15.3 µM (inactive)	15	12.9 µM (inactive)	16.1 µM (inactive)	17.7 µM (inactive)	18 µM (inactive)	16.3 µM (inactive)	16.9 µM (inactive)	15.9 µM (inactive)	18.7 µM (inactive)	12.7 µM (inactive)	16.9 µM (inactive)	18.7 µM (inactive)	18.2 µM (inactive)	13.1 µM (inactive)	–
Cc1cc2c(cc1C(=O)c1ccc(N)cc1)OCO2	34.6 µM (inactive)	24.5 µM (inactive)	16 µM (inactive)	52 µM (inactive)	30.4	24.9 µM (inactive)	–	7.82 µM (inactive)	33.8 µM (inactive)	25.1 µM (inactive)	27 µM (inactive)	36.3 µM (inactive)	27.2 µM (inactive)	20 µM (inactive)	49.5 µM (inactive)	34.8 µM (inactive)	> 100 µM (inactive)	–	–
O=C(O)CN1CCN(CC(=O)N2CCN(C(=O)OCc3ccccc3)CC2)CCN(CC(=O)O)CCN(CC(=O)N2CCN(C(=O)OCc3ccccc3)CC2)CC1	> 100 µM (inactive)	> 100 µM (inactive)	> 100 µM (inactive)	> 100 µM (inactive)	> 100	> 100 µM (inactive)	> 100 µM (inactive)	> 100 µM (inactive)	> 100 µM (inactive)	> 100 µM (inactive)	> 100 µM (inactive)	> 100 µM (inactive)	> 100 µM (inactive)	> 100 µM (inactive)	> 100 µM (inactive)	> 100 µM (inactive)	> 100 µM (inactive)	> 100 µM (inactive)	–
C=C1C(=O)O[C@H]2/C=C(/C)C3=CC(=O)[C@@](C)(C[C@@H](OC(=O)/C(C)=C\C)C12)O3 (some centres not stated)	0.426 µM (active)	0.185 µM (active)	0.284 µM (active)	0.377 µM (active)	0.216	0.154 µM (active)	0.272 µM (active)	1.21 µM (inactive)	–	–	2.4 µM (inactive)	0.0589 µM (active)	1.93 µM (inactive)	1.03 µM (active)	1.36 µM (inactive)	0.128 µM (active)	1.73 µM (inactive)	8.69 µM (inactive)	0.265 µM (active)
CN(C)CCNC(=O)c1cnn(C)c1[N+](=O)[O-]	> 100 µM (inactive)	> 100 µM (inactive)	21.6 µM (inactive)	50.9 µM (inactive)	> 100	> 100 µM (inactive)	46.7 µM (inactive)	> 100 µM (inactive)	18.6 µM (inactive)	–	> 100 µM (inactive)	> 100 µM (inactive)	> 100 µM (inactive)	44.5 µM (inactive)	> 100 µM (inactive)	79.6 µM (inactive)	53 µM (inactive)	> 100 µM (inactive)	65.6 µM (inactive)
COc1cc2c(cc1O)CC[n+]1cc3c(OC)c(OC)ccc3cc1-2	> 100 µM (inactive)	> 100 µM (inactive)	72.4 µM (inactive)	> 100 µM (inactive)	> 100	75 µM (inactive)	> 100 µM (inactive)	> 100 µM (inactive)	59.6 µM (inactive)	> 100 µM (inactive)	> 100 µM (inactive)	81.8 µM (inactive)	> 100 µM (inactive)	51.1 µM (inactive)	> 100 µM (inactive)	> 100 µM (inactive)	90.4 µM (inactive)	> 100 µM (inactive)	–
N#Cc1c(Cl)c(C=O)c(=O)n2c1[nH]c1ccccc12	55.7 µM (inactive)	40.3 µM (inactive)	59.7 µM (inactive)	29.8 µM (inactive)	57.5	56.8 µM (inactive)	33.7 µM (inactive)	33.7 µM (inactive)	26.4 µM (inactive)	28.3 µM (inactive)	28.4 µM (inactive)	> 100 µM (inactive)	35.9 µM (inactive)	91.8 µM (inactive)	61.8 µM (inactive)	77.4 µM (inactive)	56.8 µM (inactive)	42.1 µM (inactive)	–
Cc1ccc([S+]([O-])CC(CF)OCn2cc(C)c(=O)[nH]c2=O)cc1 (configuration not stated)	> 100 µM (inactive)	> 100 µM (inactive)	> 100 µM (inactive)	> 100 µM (inactive)	> 100	–	> 100 µM (inactive)	> 100 µM (inactive)	> 100 µM (inactive)	> 100 µM (inactive)	> 100 µM (inactive)	> 100 µM (inactive)	> 100 µM (inactive)	> 100 µM (inactive)	> 100 µM (inactive)	> 100 µM (inactive)	–	> 100 µM (inactive)	–
CCOC(=O)c1cc(-c2ccc(Cl)cc2)c([N+](=O)[O-])n1C	> 10 µM (inactive)	–	–	> 10 µM (inactive)	> 10	> 10 µM (inactive)	–	> 10 µM (inactive)	> 10 µM (inactive)	–	> 10 µM (inactive)	–	> 10 µM (inactive)	–	> 10 µM (inactive)	–	> 10 µM (inactive)	–	–
C=CCCCC1CCCNC1=O (configuration not stated)	> 100 µM (inactive)	> 100 µM (inactive)	–	> 100 µM (inactive)	19	> 100 µM (inactive)	–	> 100 µM (inactive)	–	–	> 100 µM (inactive)	> 100 µM (inactive)	> 100 µM (inactive)	> 100 µM (inactive)	> 100 µM (inactive)	> 100 µM (inactive)	> 100 µM (inactive)	> 100 µM (inactive)	> 100 µM (inactive)
CCN1N=CSC12C(=O)N(c1ccccc1)C(=O)N2c1ccccc1 (configuration not stated)	> 100 µM (inactive)	> 100 µM (inactive)	> 100 µM (inactive)	> 100 µM (inactive)	–	> 100 µM (inactive)	> 100 µM (inactive)	–	> 100 µM (inactive)	–	–	–	> 100 µM (inactive)	> 100 µM (inactive)	> 100 µM (inactive)	> 100 µM (inactive)	> 100 µM (inactive)	> 100 µM (inactive)	> 100 µM (inactive)
CC1OC1P(=O)(O)O (configuration not stated)	> 100 µM (inactive)	> 100 µM (inactive)	> 100 µM (inactive)	> 100 µM (inactive)	> 100	> 100 µM (inactive)	> 100 µM (inactive)	> 100 µM (inactive)	–	–	26.3 µM (inactive)	28 µM (inactive)	–	> 100 µM (inactive)	> 100 µM (inactive)	> 100 µM (inactive)	> 100 µM (inactive)	> 100 µM (inactive)	> 100 µM (inactive)
